Values joined by “and” are separate entries in the source; they are usually repeats but may differ in a detail not shown here. Identical values can stand only once. Active and inactive are the calls of the source. No rule for the calls is given here.

These results are taken from PubChem BioAssay AID732 (Emory University Molecular Libraries Screening Center, 2007).

The subject of this assay is in vivo angiogenesis, blood vessel count. The assay can be described thus: angiogenesis inhibition in living animals, in vivo study, HTS (AID 732).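 Also: zebrafish embryos dosed at one day post fertilization; 0% = reference inhibitor and 100% = plate mean.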 Particulars: stronger effect = lower value;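 tested at 30 µM in the well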.
Consider `CC1=C(/C=C/C(C)=C/C=C/C(C)=C\C(=O)O)C(C)(C)CCC1`, for which the vessel count % control is 76.1% (inactive). As for `O=Nc1c(-c2c(O)[nH]c3c(Cl)cc(Cl)cc23)[nH]c2ccc(Br)cc12`, the figure is 126% (inactive). For `c1ccc(CCCN2CCN(CCOC(c3ccccc3)c3ccccc3)CC2)cc1`, the vessel count % control is 101% (inactive). Next, `CC1OC1P(=O)(O)O` (stereo not drawn): 102% (inactive); `CC(C)CN(C)c1nc(N)c(C(=O)N=C(N)N)nc1Cl`: 101% (inactive); `O=c1[nH]c2ccccc2n1CCCN1CCC(n2c(=O)[nH]c3cc(Cl)ccc32)CC1`: 83.8% (inactive). Take `CNCCC(Oc1ccccc1OC)c1ccccc1` (stereo not drawn): the vessel count % control was 113% (inactive). As to `O=C(O)c1cc2cc(Cc3cccnc3)ccc2o1`, the vessel count % control was 100% (inactive).

With `Nc1ccn([C@H]2CC[C@@H](CO)O2)c(=O)n1`, the vessel count % control is 103% (inactive). In the case of `CNCCc1c[nH]c2ccc(O)cc12`, the vessel count % control is 101% (inactive). Turning to `COc1cc2nc(N3CCN(C(=O)C4CCCO4)CC3)nc(N)c2cc1OC` (stereo not drawn), the vessel count % control is 83.3% (inactive). Regarding `CN=c1nc(-c2ccccc2)n(-c2ccccc2)s1`, the vessel count % control was 125% (inactive). Next, `CC(C)[C@@]1(NC(=O)[C@@H]2C[C@@H]3c4cccc5[nH]cc(c45)C[C@H]3N(C)C2)O[C@@]2(O)[C@@H]3CCCN3C(=O)[C@H](Cc3ccccc3)N2C1=O`: 118% (inactive); `CCCc1c(OCCCOc2ccc(OCC(=O)O)cc2)ccc(C(C)=O)c1O`: 92.9% (inactive); `CCOC(=O)N1CCC(=C2c3ccc(Cl)cc3CCc3cccnc32)CC1`: 103% (inactive). Next, `CCc1cccc2c3c([nH]c12)C(CC)(CC(=O)O)OCC3` (stereo not drawn): 83.6% (inactive); `O=c1cc(-c2ccccc2)[nH]c2nc(Cl)ccc12`: 0% (inactive); `CCCCCCC/C=C\CCCCCCCCC(=O)O`: 106% (inactive).

`CN1CCC(=C2c3ccccc3CC(=O)c3sccc32)CC1`: the vessel count % control was 105% (inactive). As for `CN1Cc2c(N)cccc2C(c2ccccc2)C1` (stereo not drawn), the figure is 112% (inactive). As for `CCCN(CCC)[C@@H]1CCc2cccc(O)c2C1`, the figure is 94.1% (inactive). On to `CCCN1CCC[C@@H]2Cc3[nH]ncc3C[C@H]21`, for which the vessel count % control was 129% (inactive) and 112% (inactive). Consider `CCC1(O)CC2CN(CCc3c([nH]c4ccccc34)[C@@](C(=O)OC)(c3cc4c(cc3OC)N(C)C3[C@]45CCN4CC=C[C@@](CC)([C@@H](OC(C)=O)[C@]3(O)C(=O)OC)[C@H]45)C2)C1` (stereo partly drawn), for which the vessel count % control was 112% (inactive). For the molecule `NCCc1c[nH]c2ccccc12`, the vessel count % control was 118% (inactive). Next, `O=C(O)[C@H]1NCCC[C@H]1C(=O)O`: 121% (inactive); `C[C@]12C=CC(=O)C=C1CC[C@H]1[C@@H]3C[C@@H](O)[C@](O)(C(=O)CO)[C@@]3(C)C[C@H](O)[C@@]12F`: 129% (inactive); `C[N+](C)(C)CC=O`: 104% (inactive).

For the molecule `O=C(O)c1nn(Cc2ccc(Cl)cc2Cl)c2ccccc12`, the vessel count % control was 87.2% (inactive). Take `C=C[C@H]1CN2CCC1C[C@@H]2[C@@H](O)c1ccnc2ccc(OC)cc12` (stereo partly drawn): the vessel count % control was 149% (inactive). As for `Nc1nc(SCc2ccc([N+](=O)[O-])cc2)c2ncn([C@@H]3O[C@H](CO)[C@H](O)C3O)c2n1` (stereo partly drawn), the figure is 112% (inactive); as for `CCCCC#Cc1nc(N)c2ncn([C@@H]3O[C@H](C(=O)NCC)[C@@H](O)[C@H]3O)c2n1`, 110% (inactive); as for `CN1CCc2cc(Cl)c(O)cc2[C@@H](c2ccccc2)C1`, 97.5% (inactive). Next, `COc1ccccc1N1CCN(CCCNc2c(C)c(=O)n(C)c(=O)n2C)CC1`: 70.6% (inactive).
